The text below walks through data of patent publication US9187472B2 (AbbVie Inc., priority 2012, dated 2015).

SMILES strings stand for the structures.

Experiment [1] addresses NAMPT (human, recombinant, C-terminally His-tagged) (Homo sapiens, UniProt P43490). The experiment can be described thus: Time-Resolved Fluorescence Resonance Energy Transfer (TR-FRET) Binding Assay of NAMPT. The note with it: without substrates; 6.8 nM NAMPT, 200 nM probe, 3 hours equilibration. The essentials:
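Compounds, diluted in half-log steps, are mixed with enzyme (6.8 nM), fluorescent probe (200 nM) and Tb-anti-His antibody (1 nM) in pH 7.5 HEPES buffer containing 10 mM MgCl2 and 1 mM DTT. Plates equilibrate 3 h at room temperature; normalized FRET ratios are fitted by four-parameter logistic regression for IC50.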

The target of another experiment is NAMPT (Homo sapiens, UniProt P43490). Kind of experiment: TR-FRET Binding Assay of NAMPT with PRPP. The following applies: with 200 μM PRPP and 2.5 mM ATP; 2 nM NAMPT, 2 nM probe, 16 hours equilibration. The essentials: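 Compounds were mixed with 2 nM His-tagged NAMPT, 2 nM probe, 1 nM terbium anti-His antibody, 200 μM PRPP and 2.5 mM ATP in assay buffer with 2% DMSO, then left 16 hours to permit possible enzymatic processing of compounds before time-resolved FRET was measured.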
Chain of NAMPT (P43490 whole entry): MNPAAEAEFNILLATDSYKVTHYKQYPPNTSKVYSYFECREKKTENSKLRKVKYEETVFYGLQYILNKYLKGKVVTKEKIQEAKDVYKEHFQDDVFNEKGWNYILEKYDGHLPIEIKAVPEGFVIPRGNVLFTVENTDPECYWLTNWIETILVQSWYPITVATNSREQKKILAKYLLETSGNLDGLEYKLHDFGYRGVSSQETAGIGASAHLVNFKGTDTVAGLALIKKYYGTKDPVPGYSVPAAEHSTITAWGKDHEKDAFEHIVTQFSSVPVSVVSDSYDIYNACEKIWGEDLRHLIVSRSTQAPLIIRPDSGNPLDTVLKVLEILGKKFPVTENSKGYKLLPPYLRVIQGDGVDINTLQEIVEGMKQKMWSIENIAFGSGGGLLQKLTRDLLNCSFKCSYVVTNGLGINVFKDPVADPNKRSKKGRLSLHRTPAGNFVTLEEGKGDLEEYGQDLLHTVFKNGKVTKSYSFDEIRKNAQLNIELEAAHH

The next experiment concerns PC3 cells. Kind of experiment: NAMPT Cell Proliferation Assay. The format is cell-based. The note with it: Homo sapiens, PC-3, 120 h, 5 days incubation, cell viability by Cell Titer Glo. The essentials:
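PC3 cells were plated at 500 cells/well in RPMI with 10% heat-inactivated FBS, left to attach overnight, then given compounds in 10-fold dilutions from 10 μM to 1×10^−5 μM. After 5 days at 37° C and 5% CO2, viability was read by luminescence and IC50s came from sigmoidal fits of percent inhibition.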

Chain of NAMPT (human, recombinant, C-terminally His-tagged) (P43490 whole entry): as above

Regarding `O=C(NCc1ccn2ccnc2c1)c1ccc(O[C@H]2CCN(C(=O)[C@H]3CCOC3)C2)cc1` [Example 346, N-(imidazo[1,2-a]pyridin-7-ylmethyl)-4-({(3S)-1-[(3S)-tetrahydrofuran-3-ylcarbonyl]pyrrolidin-3-yl}oxy)benzamide], the figures for the concentration for half-maximal inhibition (IC50) (in experiment [1]; on NAMPT; with PC3 cells) were 3110 nM, 0.548 nM and 7020 nM, respectively.

For `O=C(NCc1ccn2ccnc2c1)c1ccc(O[C@H]2CCN(C(=O)CC3CC3)C2)cc1` [Example 347, 4-{[(3S)-1-(cyclopropylacetyl)pyrrolidin-3-yl]oxy}-N-(imidazo[1,2-a]pyridin-7-ylmethyl)benzamide], the half-inhibitory concentration (IC50) was found to be 4730 nM in experiment [1], 0.667 nM on NAMPT and 8080 nM in the experiment with PC3 cells.

With `CC(C)(O)C(=O)N1CC[C@H](Oc2ccc(C(=O)NCc3ccn4ccnc4c3)cc2)C1` [Example 348, 4-{[(3S)-1-(2-hydroxy-2-methylpropanoyl)pyrrolidin-3-yl]oxy}-N-(imidazo[1,2-a]pyridin-7-ylmethyl)benzamide], the half-maximal inhibitory concentration (IC50) in experiment [1] was above 10000 nM; on NAMPT it was 1.52 nM; in the experiment on PC3 cells, above 10000 nM.

For the compound `COCC(C)C(=O)N1CC[C@H](Oc2ccc(C(=O)NCc3ccn4ccnc4c3)cc2)C1` (stereo partly drawn) [Example 349, N-(imidazo[1,2-a]pyridin-7-ylmethyl)-4-{[(3S)-1-(3-methoxy-2-methylpropanoyl)pyrrolidin-3-yl]oxy}benzamide], the half-inhibitory concentration (IC50) in experiment [1] was determined as 4110 nM; at NAMPT, 0.736 nM; with PC3 cells, 5510 nM.

Take `CCCC(=O)N1CC[C@H](Oc2ccc(C(=O)NCc3ccn4ccnc4c3)cc2)C1` [Example 350, 4-{[(3S)-1-butanoylpyrrolidin-3-yl]oxy}-N-(imidazo[1,2-a]pyridin-7-ylmethyl)benzamide]: the 50% inhibitory concentration (IC50) in experiment [1] is above 10000 nM; at NAMPT it was 0.795 nM; in the experiment on PC3 cells, 8170 nM.

`CC(C)C(=O)N1CC[C@H](Oc2ccc(C(=O)NCc3ccn4ccnc4c3)cc2)C1` [Example 351, N-(imidazo[1,2-a]pyridin-7-ylmethyl)-4-{[(3S)-1-(2-methylpropanoyl)pyrrolidin-3-yl]oxy}benzamide]: the IC50 is 8390 nM in experiment [1], 0.792 nM on NAMPT and 8110 nM with PC3 cells.

With `O=C(NCc1ccn2ccnc2c1)c1ccc(O[C@H]2CCN(C(=O)C3CC3)C2)cc1` [Example 352, 4-{[(3S)-1-(cyclopropylcarbonyl)pyrrolidin-3-yl]oxy}-N-(imidazo[1,2-a]pyridin-7-ylmethyl)benzamide], the IC50 was above 10000 nM in experiment [1], 1.06 nM at NAMPT and 9800 nM with PC3 cells.

As to `O=C(NCc1ccn2ccnc2c1)c1ccc(O[C@H]2CCN(C(=O)c3ccccc3)C2)cc1` [Example 353, 4-{[(3S)-1-benzoylpyrrolidin-3-yl]oxy}-N-(imidazo[1,2-a]pyridin-7-ylmethyl)benzamide], the IC50 in experiment [1] is 3170 nM; on NAMPT, 0.47 nM; in the experiment on PC3 cells, 7510 nM.

Regarding `CC(C)(O)CC(=O)N1CC[C@H](Oc2ccc(C(=O)NCc3ccn4ccnc4c3)cc2)C1` [Example 354, 4-{[(3S)-1-(3-hydroxy-3-methylbutanoyl)pyrrolidin-3-yl]oxy}-N-(imidazo[1,2-a]pyridin-7-ylmethyl)benzamide], the IC50 in experiment [1] is above 10000 nM; at NAMPT it was 0.526 nM; in the experiment with PC3 cells it was 7490 nM.

`O=C(NCc1ccn2ccnc2c1)c1cnc(N2CCN(C(=O)c3ccccc3)CC2)s1` [Example 355, 2-(4-benzoylpiperazin-1-yl)-N-(imidazo[1,2-a]pyridin-7-ylmethyl)-1,3-thiazole-5-carboxamide]: the IC50 in experiment [1] amounted to 831 nM; on NAMPT, 0.169 nM; in the experiment on PC3 cells it was 1940 nM.

With `CC(C)N1CCN(c2ncc(C(=O)NCc3ccn4ccnc4c3)s2)CC1` [Example 356, N-(imidazo[1,2-a]pyridin-7-ylmethyl)-2-[4-(propan-2-yl)piperazin-1-yl]-1,3-thiazole-5-carboxamide], the IC50 in experiment [1] was above 10000 nM; at NAMPT, 0.169 nM; in the experiment on PC3 cells it was 1020 nM.

Turning to `COCCN1CCN(c2ncc(C(=O)NCc3ccn4ccnc4c3)s2)CC1` [Example 357, N-(imidazo[1,2-a]pyridin-7-ylmethyl)-2-[4-(2-methoxyethyl)piperazin-1-yl]-1,3-thiazole-5-carboxamide], the 50% inhibitory concentration (IC50) is above 10000 nM in experiment [1], 0.291 nM at NAMPT and 6740 nM in the experiment on PC3 cells.

On to `CC(C)CCNC(=O)c1ccc(C(=O)NCc2ccc3nccn3c2)cc1` [Example 358, N-(imidazo[1,2-a]pyridin-6-ylmethyl)-N′-(3-methylbutyl)benzene-1,4-dicarboxamide], for which the 50% inhibitory concentration (IC50) in experiment [1] was 1840 nM; at NAMPT, 2.19 nM; with PC3 cells, 2260 nM.

Take `O=C(NCc1ccc2nccn2c1)c1ccc(C(=O)NC[C@@H]2CCOC2)cc1` [Example 359, N-(imidazo[1,2-a]pyridin-6-ylmethyl)-N′-[(3S)-tetrahydrofuran-3-ylmethyl]benzene-1,4-dicarboxamide]: the IC50 in experiment [1] was above 10000 nM; on NAMPT it was 2.5 nM; with PC3 cells it was 8770 nM.

Regarding `CCCn1cc(-c2ccc(NC(=O)NCc3ccc4nccn4c3)cc2)cn1` [Example 360, 1-(imidazo[1,2-a]pyridin-6-ylmethyl)-3-[4-(1-propyl-1H-pyrazol-4-yl)phenyl]urea], the IC50 is 291 nM in experiment [1], 0.717 nM on NAMPT and 663 nM in the experiment on PC3 cells.

As to `O=C(NCc1ccn2ccnc2c1)c1cnc(-c2ccccc2)s1` [Example 361, N-(imidazo[1,2-a]pyridin-7-ylmethyl)-2-phenyl-1,3-thiazole-5-carboxamide], the values for the IC50 (in experiment [1]; on NAMPT; with PC3 cells) were 5030 nM, 1.94 nM and above 10000 nM, respectively.

In the case of `CC(C)Cn1cc(-c2ccc(NC(=O)NCc3ccc4nccn4c3)cc2)cn1` [Example 362, 1-(imidazo[1,2-a]pyridin-6-ylmethyl)-3-{4-[1-(2-methylpropyl)-1H-pyrazol-4-yl]phenyl}urea], the IC50 in experiment [1] is 143 nM; on NAMPT, 0.256 nM; in the experiment on PC3 cells, 106 nM.

Take `Cn1nccc1-c1ccc(C(=O)NCc2ccn3ccnc3c2)s1` [Example 363, N-(imidazo[1,2-a]pyridin-7-ylmethyl)-5-(1-methyl-1H-pyrazol-5-yl)thiophene-2-carboxamide]: the IC50 was 588 nM in experiment [1], 0.305 nM at NAMPT and 7660 nM in the experiment with PC3 cells.

On to `CC(C)(C)OC(=O)N1CC(c2ccc(NC(=O)NCc3ccn4ccnc4c3)cc2)C1` [Example 364, tert-butyl 3-(4-{[(imidazo[1,2-a]pyridin-7-ylmethyl)carbamoyl]amino}phenyl)azetidine-1-carboxylate], for which the IC50 worked out at 135 nM in experiment [1], 0.172 nM on NAMPT and 31 nM in the experiment with PC3 cells.

As for `CC(C)(C)OC(=O)N1CCC(Oc2ccc(C(=O)NCc3ccn4ccnc4c3)cc2)CC1` [Example 365, tert-butyl 4-{4-[(imidazo[1,2-a]pyridin-7-ylmethyl)carbamoyl]phenoxy}piperidine-1-carboxylate], the concentration for half-maximal inhibition (IC50) came out at 1340 nM in experiment [1], 0.171 nM on NAMPT and 332 nM in the experiment with PC3 cells.

In the case of `CC(C)(C)OC(=O)N1CCC(Oc2ccc(NC(=O)NCc3ccn4ccnc4c3)cc2)CC1` [Example 366, tert-butyl 4-(4-{[(imidazo[1,2-a]pyridin-7-ylmethyl)carbamoyl]amino}phenoxy)piperidine-1-carboxylate], the IC50 was determined as 146 nM in experiment [1], 0.435 nM on NAMPT and 21.5 nM with PC3 cells.

Take `CC(C)C(=O)N1CCC(c2ccc(C(=O)NCc3ccn4ccnc4c3)cc2)C1` (stereo not drawn) [Example 367, N-(imidazo[1,2-a]pyridin-7-ylmethyl)-4-[1-(2-methylpropanoyl)pyrrolidin-3-yl]benzamide]: the values for the 50% inhibitory concentration (IC50) (in experiment [1]; on NAMPT; in the experiment on PC3 cells) were 650 nM, 0.18 nM and 601 nM, respectively.

For the compound `CC[C@H](C)C(=O)N1CCC(c2ccc(C(=O)NCc3ccn4ccnc4c3)cc2)C1` (stereo partly drawn) [Example 368, N-(imidazo[1,2-a]pyridin-7-ylmethyl)-4-{1-[(2S)-2-methylbutanoyl]pyrrolidin-3-yl}benzamide], the IC50 in experiment [1] was 602 nM; on NAMPT it was 0.317 nM; in the experiment on PC3 cells it was 48.4 nM.

In the case of `O=C(NCc1ccn2ccnc2c1)c1ccc(C2CCN(C(=O)CC3CC3)C2)cc1` (stereo not drawn) [Example 369, 4-[1-(cyclopropylacetyl)pyrrolidin-3-yl]-N-(imidazo[1,2-a]pyridin-7-ylmethyl)benzamide], the half-maximal inhibitory concentration (IC50) in experiment [1] came out at 429 nM; at NAMPT, 0.337 nM; with PC3 cells, 738 nM.

For `O=C(NCc1ccn2ccnc2c1)c1ccc(C2CCN(C(=O)c3ccccc3)C2)cc1` (stereo not drawn) [Example 370, 4-(1-benzoylpyrrolidin-3-yl)-N-(imidazo[1,2-a]pyridin-7-ylmethyl)benzamide], the results for the 50% inhibitory concentration (IC50) (in experiment [1]; at NAMPT; in the experiment on PC3 cells) were 47.6 nM, 0.175 nM and 9.93 nM, respectively.

Regarding `CC(C)OCC(=O)N1CCC(c2ccc(C(=O)NCc3ccn4ccnc4c3)cc2)C1` (stereo not drawn) [Example 371, N-(imidazo[1,2-a]pyridin-7-ylmethyl)-4-{1-[(propan-2-yloxy)acetyl]pyrrolidin-3-yl}benzamide], the IC50 in experiment [1] was determined as 1440 nM; on NAMPT, 0.298 nM; in the experiment on PC3 cells, 820 nM.
